# Experimental data: article PMC4035429 (Neuroscience, 2014)
# Key:
# [1] = system: Z310 cells
# [2] = system: Aβ; conditions: ref Kanekiyo and Bu, 2009; cited from earlier work
# [3] = target: LRP1 (Rattus norvegicus, UniProt G3V928); test: Aβ efflux through Z310 monolayer with LRP1 inhibition; assay type: cell-based; conditions: mean±SD
# [4] = system: LRP1; test: LRP1 knockdown efficiency in Z310 cells by Western blot; assay type: cell-based, rat; conditions: 10nM siRNA, LRP1 to β-actin ratio
# [5] = LRP1 knockdown by siRNA plus 10mg/ml IVIG, p<0.001, n=3
# Chain of LRP1 (Rattus norvegicus, UniProt G3V928) (G3V928 20-4545): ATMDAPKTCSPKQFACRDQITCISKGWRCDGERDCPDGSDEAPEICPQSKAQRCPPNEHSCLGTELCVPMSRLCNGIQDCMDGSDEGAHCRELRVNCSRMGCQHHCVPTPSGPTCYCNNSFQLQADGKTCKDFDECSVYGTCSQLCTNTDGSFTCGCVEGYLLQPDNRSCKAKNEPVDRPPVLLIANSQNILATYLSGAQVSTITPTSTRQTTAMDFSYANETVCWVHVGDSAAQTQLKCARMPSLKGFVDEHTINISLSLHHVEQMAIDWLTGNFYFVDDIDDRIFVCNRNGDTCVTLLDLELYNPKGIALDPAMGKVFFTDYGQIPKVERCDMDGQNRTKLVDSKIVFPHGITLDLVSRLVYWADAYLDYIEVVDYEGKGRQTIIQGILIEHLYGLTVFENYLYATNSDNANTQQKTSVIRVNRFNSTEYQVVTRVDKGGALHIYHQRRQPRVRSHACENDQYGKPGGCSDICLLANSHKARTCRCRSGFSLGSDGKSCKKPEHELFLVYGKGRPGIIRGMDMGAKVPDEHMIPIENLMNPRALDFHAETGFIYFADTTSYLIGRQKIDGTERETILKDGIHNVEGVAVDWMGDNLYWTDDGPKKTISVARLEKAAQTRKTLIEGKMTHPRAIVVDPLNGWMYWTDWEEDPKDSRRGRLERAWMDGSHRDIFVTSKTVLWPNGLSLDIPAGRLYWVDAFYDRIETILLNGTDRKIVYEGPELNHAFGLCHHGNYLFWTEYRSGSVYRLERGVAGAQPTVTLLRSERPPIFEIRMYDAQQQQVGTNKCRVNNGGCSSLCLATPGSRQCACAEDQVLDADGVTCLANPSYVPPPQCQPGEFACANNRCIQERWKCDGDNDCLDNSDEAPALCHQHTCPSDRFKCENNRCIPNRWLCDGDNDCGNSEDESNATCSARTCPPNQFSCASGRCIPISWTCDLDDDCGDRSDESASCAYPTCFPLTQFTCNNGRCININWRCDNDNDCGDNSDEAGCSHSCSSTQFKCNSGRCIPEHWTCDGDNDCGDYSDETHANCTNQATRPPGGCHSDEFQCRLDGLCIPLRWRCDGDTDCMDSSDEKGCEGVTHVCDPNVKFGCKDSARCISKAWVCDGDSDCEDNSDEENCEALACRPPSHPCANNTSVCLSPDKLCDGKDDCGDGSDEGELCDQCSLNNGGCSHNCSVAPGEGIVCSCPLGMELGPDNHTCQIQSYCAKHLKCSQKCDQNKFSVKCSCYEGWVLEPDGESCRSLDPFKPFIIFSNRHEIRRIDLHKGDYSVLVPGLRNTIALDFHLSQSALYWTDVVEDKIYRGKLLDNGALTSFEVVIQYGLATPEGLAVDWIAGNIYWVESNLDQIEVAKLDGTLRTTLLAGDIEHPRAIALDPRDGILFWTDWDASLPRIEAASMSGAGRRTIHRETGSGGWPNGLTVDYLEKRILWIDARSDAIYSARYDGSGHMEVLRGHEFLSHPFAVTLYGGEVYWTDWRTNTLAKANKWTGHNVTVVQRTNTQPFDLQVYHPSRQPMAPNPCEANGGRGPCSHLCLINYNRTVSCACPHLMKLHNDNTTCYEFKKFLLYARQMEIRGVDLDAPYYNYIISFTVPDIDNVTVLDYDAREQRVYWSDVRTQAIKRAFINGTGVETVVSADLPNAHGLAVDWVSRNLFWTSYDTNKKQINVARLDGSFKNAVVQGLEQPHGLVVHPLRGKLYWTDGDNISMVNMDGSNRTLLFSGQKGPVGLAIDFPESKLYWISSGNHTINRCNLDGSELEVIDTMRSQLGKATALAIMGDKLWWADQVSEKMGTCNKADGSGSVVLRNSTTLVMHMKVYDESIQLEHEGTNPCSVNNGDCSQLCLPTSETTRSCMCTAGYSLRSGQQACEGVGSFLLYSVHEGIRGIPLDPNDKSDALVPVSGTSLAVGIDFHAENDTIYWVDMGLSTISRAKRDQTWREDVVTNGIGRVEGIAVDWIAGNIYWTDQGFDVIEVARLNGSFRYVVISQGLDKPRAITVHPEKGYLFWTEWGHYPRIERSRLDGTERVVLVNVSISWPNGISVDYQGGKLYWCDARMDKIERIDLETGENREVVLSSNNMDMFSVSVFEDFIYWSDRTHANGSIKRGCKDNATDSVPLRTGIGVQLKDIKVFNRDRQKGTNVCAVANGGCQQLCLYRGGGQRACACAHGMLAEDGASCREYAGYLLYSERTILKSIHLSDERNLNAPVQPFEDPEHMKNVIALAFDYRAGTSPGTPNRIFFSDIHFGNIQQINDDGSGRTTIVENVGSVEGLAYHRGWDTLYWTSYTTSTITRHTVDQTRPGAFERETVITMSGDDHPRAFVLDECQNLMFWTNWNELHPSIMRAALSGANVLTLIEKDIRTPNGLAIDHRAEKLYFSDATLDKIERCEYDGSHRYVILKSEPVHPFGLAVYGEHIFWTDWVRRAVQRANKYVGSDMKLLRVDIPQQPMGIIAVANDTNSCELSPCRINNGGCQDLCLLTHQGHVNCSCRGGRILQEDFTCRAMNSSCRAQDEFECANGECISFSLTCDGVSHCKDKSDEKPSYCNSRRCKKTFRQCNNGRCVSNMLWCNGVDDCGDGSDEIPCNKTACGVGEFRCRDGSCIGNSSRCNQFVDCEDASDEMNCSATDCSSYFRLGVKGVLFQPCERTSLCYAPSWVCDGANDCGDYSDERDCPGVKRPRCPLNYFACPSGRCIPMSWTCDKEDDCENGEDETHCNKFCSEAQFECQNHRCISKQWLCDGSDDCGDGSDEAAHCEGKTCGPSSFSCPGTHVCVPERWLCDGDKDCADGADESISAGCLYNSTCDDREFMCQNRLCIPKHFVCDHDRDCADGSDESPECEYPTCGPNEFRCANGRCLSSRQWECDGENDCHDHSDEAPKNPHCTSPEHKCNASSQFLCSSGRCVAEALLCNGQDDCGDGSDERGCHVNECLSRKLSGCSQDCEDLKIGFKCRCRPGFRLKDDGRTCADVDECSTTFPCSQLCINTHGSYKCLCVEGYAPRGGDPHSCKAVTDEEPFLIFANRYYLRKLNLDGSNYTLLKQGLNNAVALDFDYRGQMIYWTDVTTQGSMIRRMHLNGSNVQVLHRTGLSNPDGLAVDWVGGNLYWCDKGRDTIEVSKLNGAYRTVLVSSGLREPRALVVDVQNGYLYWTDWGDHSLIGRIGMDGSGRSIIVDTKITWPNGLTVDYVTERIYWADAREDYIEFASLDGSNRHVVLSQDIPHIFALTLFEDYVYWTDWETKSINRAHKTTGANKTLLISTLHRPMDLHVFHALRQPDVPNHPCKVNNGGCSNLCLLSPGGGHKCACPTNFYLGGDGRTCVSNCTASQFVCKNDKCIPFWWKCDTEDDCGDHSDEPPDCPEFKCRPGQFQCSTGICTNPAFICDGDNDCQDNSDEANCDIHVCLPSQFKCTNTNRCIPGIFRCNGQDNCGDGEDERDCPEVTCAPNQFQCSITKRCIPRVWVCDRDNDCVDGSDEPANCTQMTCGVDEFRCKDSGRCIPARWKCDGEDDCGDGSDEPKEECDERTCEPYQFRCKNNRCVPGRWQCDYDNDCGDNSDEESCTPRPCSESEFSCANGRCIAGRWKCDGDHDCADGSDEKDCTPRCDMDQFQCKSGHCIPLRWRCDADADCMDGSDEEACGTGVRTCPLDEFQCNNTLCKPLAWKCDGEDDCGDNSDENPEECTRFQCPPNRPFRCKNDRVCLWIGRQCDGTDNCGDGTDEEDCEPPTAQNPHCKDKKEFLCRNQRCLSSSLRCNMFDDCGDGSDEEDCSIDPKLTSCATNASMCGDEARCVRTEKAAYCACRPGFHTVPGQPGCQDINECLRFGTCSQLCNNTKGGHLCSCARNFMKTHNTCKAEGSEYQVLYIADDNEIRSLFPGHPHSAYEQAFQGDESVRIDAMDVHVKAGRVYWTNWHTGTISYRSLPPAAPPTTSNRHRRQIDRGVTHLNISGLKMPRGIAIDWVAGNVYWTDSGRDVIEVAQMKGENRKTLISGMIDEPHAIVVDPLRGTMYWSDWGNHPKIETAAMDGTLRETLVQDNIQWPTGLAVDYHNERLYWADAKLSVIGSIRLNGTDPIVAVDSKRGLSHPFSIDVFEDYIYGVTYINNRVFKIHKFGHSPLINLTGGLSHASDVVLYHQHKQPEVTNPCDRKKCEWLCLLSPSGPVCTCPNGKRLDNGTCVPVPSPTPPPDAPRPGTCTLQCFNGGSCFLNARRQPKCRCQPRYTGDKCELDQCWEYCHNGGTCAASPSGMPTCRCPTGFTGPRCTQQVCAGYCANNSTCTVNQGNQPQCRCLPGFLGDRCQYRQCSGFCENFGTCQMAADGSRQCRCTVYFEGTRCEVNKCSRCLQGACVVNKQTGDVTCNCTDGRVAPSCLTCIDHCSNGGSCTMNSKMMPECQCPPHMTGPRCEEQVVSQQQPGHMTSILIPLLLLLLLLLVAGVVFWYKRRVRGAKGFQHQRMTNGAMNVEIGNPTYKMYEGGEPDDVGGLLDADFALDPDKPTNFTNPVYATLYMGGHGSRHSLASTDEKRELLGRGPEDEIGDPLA
substance,measurement,setting,value
Aβ1-40: beta-amyloid 1-40 peptide (gift from Eli Lilly) added to the inner chamber at 1 μM,change of TEER between treated and untreated samples,[1],little change
"RAP: recombinant receptor-associated protein (EMD Millipore), a functional inhibitor of LRP1",concentration at which RAP could bind Aβ,[2],above 500 nM
same,IVIG-induced Aβ efflux from inner chambers at 1 hr,"[3]; 100 nM RAP plus 10mg/ml IVIG, IVIG alone 2.52±0.22, p<0.001, n=5",1.77 ± 0.1 ng/mL
same,IVIG-induced Aβ efflux from inner chambers at 3 hrs,"[3]; 100 nM RAP plus 10mg/ml IVIG, IVIG alone 7.61±0.91, p<0.001, n=5",5.41 ± 0.92 ng/mL
"LRP1 siRNA: siRNA from Sigma-Aldrich; sense 5′ -CCUAUCUUUGAGAUCCGAA-3′, antisense 5′ -UUCGGAUCUCAAAGAUAGG-3′ (chemistry not given here)",IVIG-induced Aβ efflux from inner chambers after 1 hr Aβ added,[3]; [5],1.1 ± 0.28 ng/mL
same,IVIG-induced Aβ efflux from inner chambers after 3 hrs Aβ added,[3]; [5],2.86 ± 0.86 ng/mL
same,Aβ concentration in outer chamber 1 hr after Aβ added,"[3]; LRP1 knockdown by siRNA, without IVIG, 1 μM Aβ, scrambled siRNA control 0.28±0.08, p<0.05, n=3",0.02 ± 0.004 ng/mL
same,Aβ concentration in outer chamber 3 hrs after Aβ added,"[3]; LRP1 knockdown by siRNA, without IVIG, 1 μM Aβ, scrambled siRNA control 4.0±0.31, p<0.05, n=3",1.17 ± 0.38 ng/mL
same,reduction of LRP1 at protein expression levels as compared to the scrambled siRNA controls,[4],84.7%
